The values below come from US5364861A, “Optical isomers of 7-[3-(1,1-dialkylmethyl-1-amino-1-pyrrolidinyl]-quinolones and naphthyridones as antibacterial agents” (Warner-Lambert Company, priority 1993, dated 1994).

In brackets after ≈: the same amount, converted by molar mass. Where two headings read alike, the source gives them in different places.

For one data set, the system named is Strep. pneumoniae SV-1. The data set can be described thus: in vitro antibacterial activity, microtitration dilution (MIC), Strep. pneumoniae SV-1. The class given is cell-based. Particulars: Streptococcus pneumoniae, SV1, read-out: minimum inhibiting concentration (MIC). The source says:
(§1) The in vitro antibacterial activity is obtained when tested by the microtitration dilution method as described in Heifetz, et al., Antimicr. Agents & Chemother. 1974;6:124, which is incorporated herein by reference.
(§2) By use of the above methods, the following minimum inhibiting concentration values (MICs in μg/ml), PD50 's in mg/kg, no effect phototoxicity dose in mg/kg and the cytotoxicity IC50 in μg/mL were obtained for representative enantiomers of the invention and compounds of the prior art as shown in the table.

Another data set concerns Pseud. aeruginosa UI-18. The experiment in a line: in vitro antibacterial activity, microtitration dilution (MIC), Pseud. aeruginosa UI-18. Particulars: Pseudomonas aeruginosa, UI18, read-out: minimum inhibiting concentration (MIC). In kind it is cell-based.
From the text: as §1, §2

In a further data set the test system is Prot. rettgeri M 1771. The experiment in a line: in vitro antibacterial activity, microtitration dilution (MIC), Prot. rettgeri M 1771. The class given is cell-based. Particulars: Providencia rettgeri, M1771, read-out: minimum inhibiting concentration (MIC).
From the text: as §1, §2

A further data set deals with Klebs. pneumoniae MGH-2. The data set can be described thus: in vitro antibacterial activity, microtitration dilution (MIC), Klebs. pneumoniae MGH-2. The class given is cell-based. Particulars: Klebsiella pneumoniae, MGH2, read-out: minimum inhibiting concentration (MIC).
From the text: as §1, §2

For data set [1], the system named is Strep. pyogenes C-203. The experiment in a line: in vitro antibacterial activity, microtitration dilution (MIC), Strep. pyogenes C-203. The class given is cell-based. The following applies: Streptococcus pyogenes, C203, read-out: minimum inhibiting concentration (MIC).
From the text: as §1, §2

The test system of another data set is Ent. cloacae MA2646. The data set can be described thus: in vitro antibacterial activity, microtitration dilution (MIC), Ent. cloacae MA2646. The following applies: Enterobacter cloacae, read-out: minimum inhibiting concentration (MIC). The class given is cell-based.
From the text: as §1, §2

The next data set deals with Strep. faecalis MGH-2. The data set can be described thus: in vitro antibacterial activity, microtitration dilution (MIC), Strep. faecalis MGH-2. In kind it is cell-based. The following applies: Enterococcus faecalis, MGH2, read-out: minimum inhibiting concentration (MIC).
From the text: as §1, §2

Another data set relates to Staph. aureus UC-76. The experiment in a line: in vitro antibacterial activity, microtitration dilution (MIC), Staph. aureus UC-76. In kind it is cell-based. The following applies: Staphylococcus aureus, UC76, read-out: minimum inhibiting concentration (MIC).
From the text: as §1, §2

The test system of a further data set is Staph. aureus H 228. The data set can be described thus: in vitro antibacterial activity, microtitration dilution (MIC), Staph. aureus H 228. The class given is cell-based. The following applies: Staphylococcus aureus, H228, read-out: minimum inhibiting concentration (MIC).
From the text: as §1, §2

The subject of a further data set is Esch. coli Vogel. The data set can be described thus: in vitro antibacterial activity, microtitration dilution (MIC), Esch. coli Vogel. The class given is cell-based. The following applies: Escherichia coli, read-out: minimum inhibiting concentration (MIC).
From the text: as §1, §2

Data set [2] relates to Strep. pyogenes C-203. The experiment in a line: median protective dose in mice given lethal systemic infection, Strep. pyogenes. In kind it is in vivo. The following applies: Streptococcus pyogenes, C203, Strep. pyogenes, single dose at time of challenge, route not given, read-out: median protective dose (PD50). The method, then: The in vivo activity is obtained when the compounds are tested according to the procedure of Miller, et al (Proc. Soc. Exp. Biol. Med. 1944;57:261). The median protective dose (PD50) was determined in mice given lethal systemic infections. Single doses of compound were given at time of challenge.
as §2
The in vivo data as PD50 's are reported below the line of MICs for the same compound.

Data set [3] in a line: cytotoxicity, colony reduction of hamster V-79 cells. In kind it is cell-based. The following applies: 3 hours treatment, colonies counted after 5 days, read-out: cytotoxicity IC50 (Cytotox). How it is done: The cytotoxicity data is obtained using hamster V-79 cells. The cells were suspended in tissue culture medium and grown overnight. Cells were treated with drug for 3 hours, washed free of drug and then replated, and the colonies counted after 5 days. The concentration of drug that reduced colonies by 50% relative to control was recorded.
as §2

As to `COc1c(N2CC[C@H](C(C)(C)N)C2)c(F)cc2c(=O)c(C(=O)O)cn(C3CC3)c12` [Example 8, (S)-7-[3-(1-Amino-1-methylethyl)-1-pyrrolidinyl]-1-cyclopropyl-6-fluoro-1,4-dihydro-8-methoxy-4-oxo-3-quinolinecarboxylic acid], the MIC was found to be 0.025 µg/mL (≈ 0.062 µM) in the data set with Strep. pneumoniae SV-1; 3.1 µg/mL (≈ 7.68 µM) in the data set on Pseud. aeruginosa UI-18; 0.8 µg/mL (≈ 1.98 µM) in the data set with Prot. rettgeri M 1771; 0.4 µg/mL (≈ 0.991 µM) in the data set on Klebs. pneumoniae MGH-2; 0.025 µg/mL (≈ 0.062 µM) in the data set on Strep. pyogenes C-203 [1]; 0.2 µg/mL (≈ 0.496 µM) in the data set on Ent. cloacae MA2646. Further, the MIC in the data set on Strep. faecalis MGH-2 was 0.05 µg/mL (≈ 0.124 µM); with Staph. aureus UC-76, 0.013 µg/mL (≈ 0.0322 µM); with Staph. aureus H 228 it was 0.05 µg/mL (≈ 0.124 µM); in the data set on Esch. coli Vogel it was 0.2 µg/mL (≈ 0.496 µM).
For the compound `CC(C)(N)[C@@H]1CCN(c2cc3c(c(N)c2F)c(=O)c(C(=O)O)cn3C2CC2)C1` [Example 9, (R)-7-[3-(1-Amino-1-methylethyl)-1-pyrrolidinyl]-5-amino-1-cyclopropyl-6-fluoro-1,4-dihydro-4-oxo-3-quinolinecarboxylic acid], the MIC with Strep. pneumoniae SV-1 stood at 0.006 µg/mL (≈ 0.0154 µM); in the data set with Pseud. aeruginosa UI-18, 3.1 µg/mL (≈ 7.98 µM); with Prot. rettgeri M 1771 it was 0.8 µg/mL (≈ 2.06 µM); in the data set with Klebs. pneumoniae MGH-2, 0.8 µg/mL (≈ 2.06 µM); in the data set with Strep. pyogenes C-203 [1] it was 0.006 µg/mL (≈ 0.0154 µM); in the data set on Ent. cloacae MA2646, 0.4 µg/mL (≈ 1.03 µM). Further, the MIC turned out to be 0.05 µg/mL (≈ 0.129 µM) in the data set with Strep. faecalis MGH-2, 0.006 µg/mL (≈ 0.0154 µM) in the data set with Staph. aureus UC-76, 0.025 µg/mL (≈ 0.0644 µM) in the data set with Staph. aureus H 228 and 0.4 µg/mL (≈ 1.03 µM) with Esch. coli Vogel. Also, the ED50 came out at 11 mg/kg in the data set with Strep. pyogenes C-203 [2] (first line below the MICs) and 2 mg/kg in the data set with Strep. pyogenes C-203 [2] (second line below the MICs). The CC50 at 3 h in [3] amounted to 13 µg/mL (≈ 33.5 µM).
Regarding `Cc1c(F)c(N2CC[C@@H](C(C)(C)N)C2)cc2c1c(=O)c(C(=O)O)cn2-c1ccc(F)cc1F` [Example 10, (R)-7-[3-(1-Amino-1-methylethyl)-1-pyrrolidinyl]-1-(2,4-difluorophenyl)-6-fluoro-1,4-dihydro-5-methyl-4-oxo-3-quinolinecarboxylic acid], the MIC in the data set on Strep. pneumoniae SV-1 was 0.4 µg/mL (≈ 0.871 µM); in the data set on Pseud. aeruginosa UI-18 it was 3.1 µg/mL (≈ 6.75 µM); in the data set with Prot. rettgeri M 1771, 1.6 µg/mL (≈ 3.48 µM); with Klebs. pneumoniae MGH-2, 0.8 µg/mL (≈ 1.74 µM); in the data set with Strep. pyogenes C-203 [1], 0.2 µg/mL (≈ 0.435 µM); with Ent. cloacae MA2646 it was 0.4 µg/mL (≈ 0.871 µM). The MIC in the data set on Strep. faecalis MGH-2 was determined as 0.4 µg/mL (≈ 0.871 µM); in the data set on Staph. aureus UC-76 it was 0.05 µg/mL (≈ 0.109 µM); in the data set on Staph. aureus H 228, 0.1 µg/mL (≈ 0.218 µM); in the data set with Esch. coli Vogel it was 0.4 µg/mL (≈ 0.871 µM).
In the case of `Cc1c(F)c(N2CC[C@H](C(C)(C)N)C2)cc2c1c(=O)c(C(=O)O)cn2-c1ccc(F)cc1F` [Example 11, S-7-[3-(1-amino-1-methylethyl)-1-pyrrolidinyl]-1-(2,4-difluorophenyl)-6-fluoro-1,4-dihydro-5-methyl-4-oxo-3-quinolinecarboxylic acid], the MIC in the data set on Strep. pneumoniae SV-1 is 0.013 µg/mL (≈ 0.0283 µM); in the data set on Pseud. aeruginosa UI-18 it was 1.6 µg/mL (≈ 3.48 µM); with Prot. rettgeri M 1771, 0.4 µg/mL (≈ 0.871 µM); in the data set on Klebs. pneumoniae MGH-2, 0.2 µg/mL (≈ 0.435 µM); with Strep. pyogenes C-203 [1], 0.013 µg/mL (≈ 0.0283 µM); in the data set with Ent. cloacae MA2646 it was 0.1 µg/mL (≈ 0.218 µM). Besides, the MIC in the data set on Strep. faecalis MGH-2 was 0.1 µg/mL (≈ 0.218 µM); in the data set with Staph. aureus UC-76, 0.013 µg/mL (≈ 0.0283 µM); with Staph. aureus H 228, 0.025 µg/mL (≈ 0.0544 µM); in the data set with Esch. coli Vogel, 0.1 µg/mL (≈ 0.218 µM).
With `CC(C)(N)[C@H]1CCN(c2c(F)cc3c(=O)c(C(=O)O)cn(C4CC4)c3c2F)C1` [Example 12, (S)-7-[3-(1-Amino-1-methylethyl)-1-pyrrolidinyl]-1-cyclopropyl-6,8-difluoro-1,4-dihydro-4-oxo-3-quinolinecarboxylic acid], the MIC with Strep. pneumoniae SV-1 stood at 0.006 µg/mL (≈ 0.0153 µM); in the data set with Pseud. aeruginosa UI-18, 1.6 µg/mL (≈ 4.09 µM); in the data set on Prot. rettgeri M 1771 it was 0.4 µg/mL (≈ 1.02 µM); with Klebs. pneumoniae MGH-2, 0.2 µg/mL (≈ 0.511 µM); in the data set on Strep. pyogenes C-203 [1] it was 0.006 µg/mL (≈ 0.0153 µM); in the data set with Ent. cloacae MA2646 it was 0.2 µg/mL (≈ 0.511 µM). For the same compound, the MIC in the data set with Strep. faecalis MGH-2 is 0.025 µg/mL (≈ 0.0639 µM); in the data set on Staph. aureus UC-76 it was ≤ 0.003 µg/mL; with Staph. aureus H 228 it was 0.025 µg/mL (≈ 0.0639 µM); with Esch. coli Vogel, 0.1 µg/mL (≈ 0.255 µM). Moreover, the ED50 in the data set on Strep. pyogenes C-203 [2] (first line below the MICs) worked out at 12 mg/kg; with Strep. pyogenes C-203 [2] (second line below the MICs), 0.6 mg/kg.
